Measurements taken from ChEMBL document CHEMBL5212743, “Selectivity Literature for EUbOPEN Chemogenomics Library wave 3” (2023).
One block for each compound: values may come before it.

Experiments:
[1] = target: Matrix metalloproteinase-9 (Homo sapiens, UniProt P14780); assay: Selectivity interaction (Lead profiling screen (Eurofins, enzymes, transporters, GPCRs, ion chanels)) EUB0000728a MMP9
Collagenase 3 = Collagenase 3 (Homo sapiens, UniProt P45452); assay: Selectivity interaction (Lead profiling screen (Eurofins, enzymes, transporters, GPCRs, ion chanels)) EUB0000728a MMP13
D(2) dopamine receptor = D(2) dopamine receptor (Homo sapiens, UniProt P14416); assay: Selectivity interaction (GPCR panel (PDSP screen)) EUB0000728a DRD2; conditions: at 10 µM
Stromelysin-2 = Stromelysin-2 (Homo sapiens, UniProt P09238); assay: Selectivity interaction (Lead profiling screen (Eurofins, enzymes, transporters, GPCRs, ion chanels)) EUB0000728a MMP10
[2] = target: Epidermal growth factor receptor (Homo sapiens, UniProt P00533); assay: Selectivity interaction (KinomeScan (DiscoverX)) EUB0000728a EGFR; conditions: at 1 µM
[3] = target: Non-receptor tyrosine-protein kinase TYK2 (Homo sapiens, UniProt P29597); assay: Selectivity interaction (KinomeScan (DiscoverX)) EUB0000728a TYK2; conditions: at 1 µM
[4] = target: Matrix metalloproteinase-16 (Homo sapiens, UniProt P51512); assay: Selectivity interaction (Lead profiling screen (Eurofins, enzymes, transporters, GPCRs, ion chanels)) EUB0000728a MMP16
Matrilysin = target: T1, Matrilysin (Homo sapiens, UniProt P09237); assay: Selectivity interaction (Lead profiling screen (Eurofins, enzymes, transporters, GPCRs, ion chanels)) EUB0000728a MMP7
T1 sequence (P09237 whole entry): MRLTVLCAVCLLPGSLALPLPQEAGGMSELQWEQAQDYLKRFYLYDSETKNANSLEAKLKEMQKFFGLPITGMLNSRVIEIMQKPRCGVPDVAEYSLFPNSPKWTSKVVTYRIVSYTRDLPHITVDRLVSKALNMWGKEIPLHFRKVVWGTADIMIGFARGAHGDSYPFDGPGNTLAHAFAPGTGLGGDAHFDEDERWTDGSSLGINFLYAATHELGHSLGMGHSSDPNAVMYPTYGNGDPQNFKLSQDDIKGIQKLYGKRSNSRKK

[5] = target: 72 kDa type IV collagenase (Homo sapiens, UniProt P08253); assay: Selectivity interaction (Lead profiling screen (Eurofins, enzymes, transporters, GPCRs, ion chanels)) EUB0000728a MMP2
[6] = target: Calcium/calmodulin-dependent protein kinase type 1B (Homo sapiens, UniProt Q6P2M8); assay: Selectivity interaction (KinomeScan (DiscoverX)) EUB0000728a PNCK; conditions: at 1 µM
[7] = target: Matrix metalloproteinase-14 (Homo sapiens, UniProt P50281); assay: Selectivity interaction (Lead profiling screen (Eurofins, enzymes, transporters, GPCRs, ion chanels)) EUB0000728a MMP14
Stromelysin-1 = Stromelysin-1 (Homo sapiens, UniProt P08254); assay: Selectivity interaction (Lead profiling screen (Eurofins, enzymes, transporters, GPCRs, ion chanels)) EUB0000728a MMP3
Neutrophil collagenase = Neutrophil collagenase (Homo sapiens, UniProt P22894); assay: Selectivity interaction (Lead profiling screen (Eurofins, enzymes, transporters, GPCRs, ion chanels)) EUB0000728a MMP8
[8] = target: T2, Gamma-aminobutyric acid receptor subunit alpha-1 (Homo sapiens, UniProt P14867); assay: (§1) Selectivity interaction (GPCR panel (PDSP screen)) EUB0000707a GABRA1
T2 sequence (P14867 whole entry): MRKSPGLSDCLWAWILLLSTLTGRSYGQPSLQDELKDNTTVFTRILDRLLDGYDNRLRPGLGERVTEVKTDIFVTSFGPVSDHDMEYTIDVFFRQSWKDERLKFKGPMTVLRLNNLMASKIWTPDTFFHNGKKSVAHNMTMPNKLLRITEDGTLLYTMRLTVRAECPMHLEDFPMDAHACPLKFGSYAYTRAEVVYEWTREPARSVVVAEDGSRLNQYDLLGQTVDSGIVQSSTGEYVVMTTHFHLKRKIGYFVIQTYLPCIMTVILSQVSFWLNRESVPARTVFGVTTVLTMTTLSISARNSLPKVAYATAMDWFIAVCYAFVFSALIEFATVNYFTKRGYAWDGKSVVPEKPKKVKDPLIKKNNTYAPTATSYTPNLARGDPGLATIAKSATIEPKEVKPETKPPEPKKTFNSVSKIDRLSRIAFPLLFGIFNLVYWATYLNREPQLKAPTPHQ

[9] = target: Interleukin-1 receptor-associated kinase 4 (Homo sapiens) (UniProt Q9NWZ3); assay: Selectivity interaction (KinomeScan (DiscoverX)) EUB0000707a IRAK4; conditions: at 1 µM
[10] = target: T2, Gamma-aminobutyric acid receptor subunit alpha-1; assay: as §1; remark: listed apart in the source
[11] = test system: Hepatocyte growth factor receptor (Homo sapiens), P08581 [M1250T]; assay: (§2) Selectivity interaction (KinomeScan (DiscoverX)) EUB0000707a MET; conditions: at 1 µM
[12] = target: Hepatocyte growth factor receptor (Homo sapiens) (UniProt P08581); assay: as §2; conditions: at 1 µM
[13] = target: Phosphatidylinositol 4-kinase beta (Homo sapiens) (UniProt Q9UBF8); assay: Selectivity interaction (KinomeScan (DiscoverX)) EUB0000707a PI4KB; conditions: at 1 µM
Thromboxane-A synthase = Thromboxane-A synthase (Homo sapiens, UniProt P24557); assay: (§3) Selectivity interaction (Eurofins-Panlabs screen) EUB0000542a CYP5A1
[14] = target: Serine/threonine-protein kinase Chk2 (Homo sapiens, UniProt O96017); assay: Selectivity interaction (KinomeScan (DiscoverX)) EUB0000542a CHEK2; conditions: at 1 µM
[15] = target: Polyunsaturated fatty acid 5-lipoxygenase (Homo sapiens) (UniProt P09917); assay: (§4) Selectivity interaction (Eurofins-Panlabs screen) EUB0000542a ALOX5; conditions: at 10 µM
[16] = target: Polyunsaturated fatty acid 5-lipoxygenase (Homo sapiens, UniProt P09917); assay: as §4
[17] = target: Tyrosine-protein kinase receptor TYRO3 (Homo sapiens) (UniProt Q06418); assay: Selectivity interaction (KinomeScan (DiscoverX)) EUB0000542a TYRO3; conditions: at 1 µM
[18] = target: Thromboxane-A synthase (Homo sapiens) (UniProt P24557); assay: as §3; conditions: at 10 µM
[19] = target: Tyrosine-protein kinase JAK1 (Homo sapiens, UniProt P23458); assay: Selectivity interaction (KinomeScan (DiscoverX)) EUB0000542a JAK1@kinase 2; conditions: at 1 µM
Sequence of Tyrosine-protein kinase JAK1 (P23458 whole entry): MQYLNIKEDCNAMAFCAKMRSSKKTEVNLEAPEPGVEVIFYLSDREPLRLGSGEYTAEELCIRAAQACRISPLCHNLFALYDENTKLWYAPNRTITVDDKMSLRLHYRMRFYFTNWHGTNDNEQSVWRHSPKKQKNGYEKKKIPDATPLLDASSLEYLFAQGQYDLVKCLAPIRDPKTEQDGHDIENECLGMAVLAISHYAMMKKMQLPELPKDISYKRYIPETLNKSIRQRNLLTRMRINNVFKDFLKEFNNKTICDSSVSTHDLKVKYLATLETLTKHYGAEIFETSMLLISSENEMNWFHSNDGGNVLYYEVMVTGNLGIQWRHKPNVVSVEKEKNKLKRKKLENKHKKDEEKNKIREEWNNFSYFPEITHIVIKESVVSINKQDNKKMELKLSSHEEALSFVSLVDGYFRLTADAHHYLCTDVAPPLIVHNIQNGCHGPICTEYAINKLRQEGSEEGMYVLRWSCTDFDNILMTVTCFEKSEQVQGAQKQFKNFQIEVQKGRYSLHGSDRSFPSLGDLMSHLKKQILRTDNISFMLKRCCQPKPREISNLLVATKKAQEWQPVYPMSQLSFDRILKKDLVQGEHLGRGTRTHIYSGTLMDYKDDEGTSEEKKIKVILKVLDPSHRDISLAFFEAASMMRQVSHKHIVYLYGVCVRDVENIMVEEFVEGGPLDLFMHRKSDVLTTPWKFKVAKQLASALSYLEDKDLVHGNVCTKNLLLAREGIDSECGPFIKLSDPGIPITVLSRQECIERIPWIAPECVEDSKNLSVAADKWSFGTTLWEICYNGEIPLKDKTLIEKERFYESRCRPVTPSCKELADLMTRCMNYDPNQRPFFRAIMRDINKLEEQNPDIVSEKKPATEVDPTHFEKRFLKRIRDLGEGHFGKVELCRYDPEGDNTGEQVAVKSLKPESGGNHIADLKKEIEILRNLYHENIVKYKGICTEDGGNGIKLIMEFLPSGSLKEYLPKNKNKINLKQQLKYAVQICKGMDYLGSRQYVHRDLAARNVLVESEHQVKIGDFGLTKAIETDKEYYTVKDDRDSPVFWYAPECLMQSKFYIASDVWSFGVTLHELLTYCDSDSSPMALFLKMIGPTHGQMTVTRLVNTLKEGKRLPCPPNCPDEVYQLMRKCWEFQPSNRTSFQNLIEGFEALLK

Sequence of Interleukin-1 receptor-associated kinase 4 (Homo sapiens) (Q9NWZ3 whole entry): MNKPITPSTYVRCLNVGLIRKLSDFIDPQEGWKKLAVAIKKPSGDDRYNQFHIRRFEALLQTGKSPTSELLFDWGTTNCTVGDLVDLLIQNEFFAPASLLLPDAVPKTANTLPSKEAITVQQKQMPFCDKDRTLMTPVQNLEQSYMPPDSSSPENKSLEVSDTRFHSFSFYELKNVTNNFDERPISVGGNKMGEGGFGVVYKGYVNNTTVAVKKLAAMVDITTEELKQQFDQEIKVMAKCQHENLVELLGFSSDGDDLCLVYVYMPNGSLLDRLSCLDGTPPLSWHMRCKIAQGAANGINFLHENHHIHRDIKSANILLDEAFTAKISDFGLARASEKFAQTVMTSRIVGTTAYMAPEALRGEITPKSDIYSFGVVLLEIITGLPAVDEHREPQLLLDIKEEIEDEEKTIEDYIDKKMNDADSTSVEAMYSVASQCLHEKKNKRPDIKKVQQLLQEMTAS
Sequence of Epidermal growth factor receptor (P00533 whole entry): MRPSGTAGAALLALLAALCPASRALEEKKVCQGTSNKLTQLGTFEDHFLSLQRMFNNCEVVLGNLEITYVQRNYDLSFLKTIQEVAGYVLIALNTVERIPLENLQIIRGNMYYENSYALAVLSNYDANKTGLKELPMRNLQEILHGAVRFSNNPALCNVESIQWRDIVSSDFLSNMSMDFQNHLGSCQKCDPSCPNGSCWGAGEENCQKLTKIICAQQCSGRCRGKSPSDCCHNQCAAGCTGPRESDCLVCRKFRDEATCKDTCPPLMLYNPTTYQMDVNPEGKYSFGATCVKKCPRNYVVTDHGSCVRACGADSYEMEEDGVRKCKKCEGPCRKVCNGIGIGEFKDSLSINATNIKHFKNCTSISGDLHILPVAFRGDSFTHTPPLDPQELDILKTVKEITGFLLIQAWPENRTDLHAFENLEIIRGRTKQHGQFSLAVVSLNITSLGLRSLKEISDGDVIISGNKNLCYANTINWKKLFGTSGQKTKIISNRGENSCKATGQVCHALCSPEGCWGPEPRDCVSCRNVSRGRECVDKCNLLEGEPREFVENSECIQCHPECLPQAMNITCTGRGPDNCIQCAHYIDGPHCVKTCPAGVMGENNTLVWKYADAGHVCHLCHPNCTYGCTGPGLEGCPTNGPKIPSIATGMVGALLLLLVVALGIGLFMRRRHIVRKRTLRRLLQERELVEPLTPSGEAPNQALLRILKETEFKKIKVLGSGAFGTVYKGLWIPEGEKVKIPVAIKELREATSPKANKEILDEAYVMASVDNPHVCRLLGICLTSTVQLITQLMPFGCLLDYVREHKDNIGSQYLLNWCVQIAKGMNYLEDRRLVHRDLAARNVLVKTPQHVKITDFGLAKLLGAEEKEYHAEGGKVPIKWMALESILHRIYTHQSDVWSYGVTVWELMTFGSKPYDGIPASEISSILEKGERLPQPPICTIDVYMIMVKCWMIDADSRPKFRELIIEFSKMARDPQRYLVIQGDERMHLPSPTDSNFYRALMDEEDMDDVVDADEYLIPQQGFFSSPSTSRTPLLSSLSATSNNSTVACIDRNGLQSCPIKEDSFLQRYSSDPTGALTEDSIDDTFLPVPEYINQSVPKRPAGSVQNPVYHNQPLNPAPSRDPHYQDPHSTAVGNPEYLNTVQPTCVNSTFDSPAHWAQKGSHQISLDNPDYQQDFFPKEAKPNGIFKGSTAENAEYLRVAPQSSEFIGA
Sequence of Polyunsaturated fatty acid 5-lipoxygenase (Homo sapiens) (P09917 whole entry): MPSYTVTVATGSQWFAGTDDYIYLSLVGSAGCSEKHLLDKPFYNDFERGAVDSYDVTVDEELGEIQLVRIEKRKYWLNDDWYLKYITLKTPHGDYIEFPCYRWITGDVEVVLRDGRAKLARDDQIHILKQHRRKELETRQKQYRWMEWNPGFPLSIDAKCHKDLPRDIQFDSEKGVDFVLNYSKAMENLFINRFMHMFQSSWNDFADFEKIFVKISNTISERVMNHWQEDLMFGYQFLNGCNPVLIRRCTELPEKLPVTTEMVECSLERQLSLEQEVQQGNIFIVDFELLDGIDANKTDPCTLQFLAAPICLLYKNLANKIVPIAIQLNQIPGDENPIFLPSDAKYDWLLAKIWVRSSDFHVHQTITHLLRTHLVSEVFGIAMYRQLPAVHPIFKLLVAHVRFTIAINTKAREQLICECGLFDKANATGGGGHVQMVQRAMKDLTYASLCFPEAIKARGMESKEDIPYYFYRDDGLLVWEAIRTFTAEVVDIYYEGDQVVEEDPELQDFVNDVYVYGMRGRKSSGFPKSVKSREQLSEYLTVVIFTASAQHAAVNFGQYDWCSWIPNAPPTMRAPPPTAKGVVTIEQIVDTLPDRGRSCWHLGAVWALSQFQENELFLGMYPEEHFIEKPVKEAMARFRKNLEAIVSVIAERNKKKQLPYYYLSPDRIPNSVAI
Sequence of Polyunsaturated fatty acid 5-lipoxygenase (P09917 whole entry): as above
Sequence of Thromboxane-A synthase (P24557 whole entry): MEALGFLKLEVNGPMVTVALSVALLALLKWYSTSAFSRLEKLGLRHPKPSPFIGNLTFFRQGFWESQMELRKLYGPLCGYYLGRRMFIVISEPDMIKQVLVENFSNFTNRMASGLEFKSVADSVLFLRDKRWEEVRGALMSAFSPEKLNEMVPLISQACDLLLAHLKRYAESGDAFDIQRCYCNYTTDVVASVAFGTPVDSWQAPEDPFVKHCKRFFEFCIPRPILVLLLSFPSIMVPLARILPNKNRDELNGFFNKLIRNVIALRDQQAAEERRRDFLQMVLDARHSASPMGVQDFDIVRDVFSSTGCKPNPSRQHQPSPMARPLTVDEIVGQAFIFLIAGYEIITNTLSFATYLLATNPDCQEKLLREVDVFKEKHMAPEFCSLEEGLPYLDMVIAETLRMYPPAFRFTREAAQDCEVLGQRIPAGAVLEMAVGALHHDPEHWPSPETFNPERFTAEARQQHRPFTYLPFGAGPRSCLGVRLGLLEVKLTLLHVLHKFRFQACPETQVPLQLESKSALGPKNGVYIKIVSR
Sequence of Thromboxane-A synthase (Homo sapiens) (P24557 whole entry): as above
Sequence of D(2) dopamine receptor (P14416 whole entry): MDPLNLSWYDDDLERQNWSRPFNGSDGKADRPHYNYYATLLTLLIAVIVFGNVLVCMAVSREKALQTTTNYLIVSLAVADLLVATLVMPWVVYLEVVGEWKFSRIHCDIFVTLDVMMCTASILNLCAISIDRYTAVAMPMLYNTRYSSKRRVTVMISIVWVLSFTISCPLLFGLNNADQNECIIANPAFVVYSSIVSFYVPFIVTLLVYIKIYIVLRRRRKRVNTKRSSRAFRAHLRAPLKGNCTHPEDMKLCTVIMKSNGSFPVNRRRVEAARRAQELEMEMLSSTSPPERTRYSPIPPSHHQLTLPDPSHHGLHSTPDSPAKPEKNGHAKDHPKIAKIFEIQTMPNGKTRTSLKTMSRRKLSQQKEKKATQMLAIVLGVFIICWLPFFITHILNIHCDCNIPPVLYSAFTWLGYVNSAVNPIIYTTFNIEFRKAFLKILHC
Sequence of Neutrophil collagenase (P22894 whole entry): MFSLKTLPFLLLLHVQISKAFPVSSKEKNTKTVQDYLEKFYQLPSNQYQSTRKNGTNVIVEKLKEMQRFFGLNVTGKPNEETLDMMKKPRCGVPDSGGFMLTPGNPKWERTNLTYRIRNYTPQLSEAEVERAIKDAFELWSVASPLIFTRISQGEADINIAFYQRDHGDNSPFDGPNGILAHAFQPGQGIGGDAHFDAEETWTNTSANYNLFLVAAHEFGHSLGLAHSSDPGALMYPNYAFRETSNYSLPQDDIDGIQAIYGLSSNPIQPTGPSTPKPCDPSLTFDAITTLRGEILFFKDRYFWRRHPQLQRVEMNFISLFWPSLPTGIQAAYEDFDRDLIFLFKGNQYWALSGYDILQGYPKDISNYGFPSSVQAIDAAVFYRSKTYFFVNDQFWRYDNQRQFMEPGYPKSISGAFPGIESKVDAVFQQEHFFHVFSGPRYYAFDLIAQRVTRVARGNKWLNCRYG

- IC50 [1]: 460 nM
- IC50 (Collagenase 3): 67 nM
- % of inhibition (D(2) dopamine receptor): 30%
- IC50 (Stromelysin-2): 13 nM
- % of control [2]: 40%
- % of control [3]: 41%
- IC50 [4]: 940 nM
- IC50 (Matrilysin): 600 nM
- IC50 [5]: 44 nM
- % of control [6]: 46%
- IC50 [7]: 250 nM
- IC50 (Stromelysin-1): 360 nM
- IC50 (Neutrophil collagenase): 15 nM
Structure (SMILES): O=C(O)[C@H]1[C@H](Cn2nnc3ccccc3c2=O)CC[C@@H]1C(=O)c1ccc(OCCC2CCOCC2)cc1 [BAY-7598]

- Ki [8]: 21 nM
- % of control [9]: 7.5%
- Ki [10]: 21 nM
- % of control [11]: 27%
- % of control [12]: 24%
- % of control [13]: 30%
Structure (SMILES): CC1=C(C#N)C(c2ccc3c(c2)c(NC(=O)c2ccccc2C)nn3C)C(C#N)=C(C)N1 [BAY-974]

- IC50 (Thromboxane-A synthase): 132 nM
- % of control [14]: 0%
- % of inhibition [15]: 66%
- IC50 [16]: 5920 nM
- % of control [17]: 0%
- % of inhibition [18]: 96%
- % of control [19]: 37%
Structure (SMILES): CCOCCn1cc(C(=O)Nc2ccc(-n3nc(-c4cccnc4)cc3C(F)(F)F)cn2)ccc1=O [BI 1935]
